By melting point is commonly meant the temperature, or range, at which the solid turns liquid.

SMILES strings stand for the structures. Residues, ends and D or L forms follow the SMILES beside them. *: point of attachment. Propionyl = CCC(=O)*; NHPh = c1ccc(N*)cc1

Molecule `CCOC(=O)c1csc(NC(=O)C(CC2CCCC2)c2ccc(NC(=O)c3cccnc3)cc2)n1` (stereo unspecified) came in with a melting point of 222 to 223 °C.

As to `Fc1cc(F)c2c(c1)CCC2n1cc[nH]c1=S` (stereo unspecified), the melting point was in the range of 212 to 215 °C.

`COCCNc1nc2c(N)nc3ccccc3c2n1CC(C)(C)O` registered a melting point of 176 to 178 °C.

Turning to `Oc1ccc2cc(COCC3CC3)ccc2c1`, the melting point lay within 129 to 132 °C.

Regarding `O=[N+]([O-])c1ccc2c(C3=CN4CCC3CC4)c[nH]c2c1`, the melting point lay in the range of 274 to 276 °C.

With `Clc1ccc(C(=Cc2ccccc2Cl)Cn2cncn2)cc1`, the melting point was in the range of 106 to 110 °C.

In turn, `CCOC(=O)c1cccc2c1N(CCN1CC=C(c3c[nH]c4cc(F)ccc34)CC1)S(=O)(=O)N(C(C)C)C2` returned a melting point of 95 to 97 °C.

As to `CC(C)n1nc(-c2c(-c3ccccc3)nn3ccc(OC4CCOCC4)cc23)ccc1=O`, the melting point lay within 210 to 211 °C.

For `CC(=O)n1nc(OCC(=O)C(C)(C)C)c(-c2ccccc2)c1-c1ccc(S(C)(=O)=O)cc1`, the melting point lay in the range of 189 to 191 °C.

In turn, `c1cc(P(CCP(c2ccncc2)c2ccncc2)c2ccncc2)ccn1` came in with a melting point of 183 to 185 °C.

In turn, `O=C1Cc2cccc(S(=O)(=O)c3ccccc3)c2N1` yielded a melting point of 217 to 220 °C.

`CC(=O)Nc1cc(Cl)c(C(C#N)c2ccc(Cl)c(C(F)(F)F)c2)c(Cl)c1` (stereo unspecified): the melting point was 172 °C.

Regarding `NNC1=NS(=O)(=O)c2cc(Cl)ccc21`, the melting point turned out to be 277 °C.

`CC(C)(C)N(NC(=O)c1ccccc1)C(=O)c1ccncc1`: the melting point was above 210 °C.

For the molecule `C=CC(=O)Oc1ccc(Cl)c2c(N(C)C)ncnc12`, the melting point lay within 95 to 100 °C.

Take `O=C(c1ccccc1)N1CCN(c2ccccc2)CCn2c1nc1ccccc12`: the melting point was 217 to 220 °C.

For the molecule `COc1ccc(Cl)cc1C(=O)c1cc(Cl)ccc1OC`, the melting point amounted to 108 °C.

Molecule `NC(=O)C1(O)c2ccccc2S(=O)(=O)N1Cc1ccc(Br)cc1` (stereo unspecified) yielded a melting point of 166 to 168 °C.

`CC(=O)Oc1c(C(C)(C)C)cc2oc(C=O)cc2c1C(C)(C)C`: the melting point is 160 °C.

The molecule `Cc1ccc(S(=O)(=O)c2cc3cnc(C)nc3nc2O)cc1` returned a melting point above 200 °C.

In turn, `CN(C)CC(c1ccc(OC(=O)c2ccccc2)cc1)C1(OC(=O)c2ccccc2)CCCCC1` (stereo unspecified) gave a melting point of 128 to 130 °C.

`CC(C)=CCC/C(C)=C/COCC(=O)c1cc(C(C)C)c(O)c(C(C)C)c1`: the melting point fell in the range of 70 to 71 °C.

The molecule `CC(C)c1ccc(NC(=O)OC(C)(C)C)c(C(=O)NCC2CCN(C(c3ccccc3)c3ccccc3)CC2)c1` showed a melting point of 88 to 90 °C.

For `CCOC(=O)c1[nH]c2cc(Cl)cc(Cl)c2c1NCC(=O)c1ccccc1F`, the melting point is above 290 °C.

Regarding `O=C(c1cccc(OC(F)(F)F)c1)N1CCc2cc(S(=O)(=O)N3CC(c4ccccc4)NC3=O)ccc21` (stereo unspecified), the melting point is 129 to 131 °C.

`Oc1ccc(N2CCN(CC[C@H]3CC[C@H](Nc4ncccn4)CC3)CC2)cc1` had a melting point of 192 to 194 °C.

`CCOC(=O)C1Oc2ccc(Cl)c(Cl)c2O1` (stereo unspecified): the melting point lay in the range of 58 to 61 °C.

For the molecule `CCCCCCCCCCCCCCCCSC(=O)Nc1ccc(NC(=O)NS(=O)(=O)c2ccc3ccccc3c2)cc1`, the melting point turned out to be 190 °C.

`O=C(OCc1cc(COC(=O)c2ccc(O)c(F)c2)cc(COC(=O)c2ccc(O)c(F)c2)c1)c1ccc(O)c(F)c1` registered a melting point of 88 °C.

As for `c1cn(CCc2nc(-c3ccc4c(c3)OCO4)c3cc4c(cc3n2)OCO4)cn1`, the melting point lay in the range of 160 to 163 °C.

`O=c1[nH]c2ccc(C=C3c4ccc(F)cc4CCc4cc(F)ccc43)cc2[nH]1` returned a melting point of 257 °C.

Molecule `C[C@@H](n1cnc2cc(F)ccc2c1=O)[C@](O)(Cn1cncn1)c1ccc(F)cc1F` displayed a melting point of 106 to 107 °C.

Molecule `COc1ccc(-c2nc(C(N)=O)c(N)nc2-c2ccccc2)cn1` showed a melting point of 208 to 212 °C.

Regarding `C=CC(=O)NCC(C(=O)c1ccccc1)C(=O)c1ccccc1`, the melting point is 146 to 148 °C.

Consider `O=C1c2cccc3cccc(c23)C(=O)N1CCCCO`, for which the melting point is 105 to 108 °C.

Take `COc1ccc(C(=O)Nc2ccc3ccc(Oc4cccc(C)c4)nc3n2)cc1`: the melting point amounted to 160 °C.

In turn, `CCCOC(=O)c1cc(NC(=O)c2ccccc2C)ccc1Cl` gave a melting point of 103 to 105 °C.

With `CCCCCCOC(=O)c1cccc(-c2cn(C)cc(-n3cccn3)c2=O)c1`, the melting point is 96 to 97 °C.

On to `Cc1ccc(S(=O)(=O)OCC(COC(C)(C)C)OS(=O)(=O)c2ccc(C)cc2)cc1` (single isomer, unassigned; (+)), for which the melting point lay within 70 to 71 °C.

Turning to `COC(=O)Cc1cc(OC)c(OC)cc1[N+](=O)[O-]`, the melting point was 110 to 111 °C.

As to `O=C(Oc1cccc2sc(-c3ccc(OCCN4CCCC4)cc3)c(C(=O)c3ccc(F)cc3)c12)c1ccc(F)cc1`, the melting point was in the range of 58 to 63 °C.

As to `Cc1ccc(-c2nc(Cl)c3ccccc3n2)cc1`, the melting point lay in the range of 113 to 115 °C.

Consider `O=C1CN=C(c2ccccc2Cl)c2cc(I)ccc2N1`, for which the melting point fell in the range of 260 to 262 °C.

Regarding `CC12CCC(=O)C=C1CCC1C3CC(OCC4CO4)C(O)(C(=O)CO)C3(C)CC(O)C12F` (stereo unspecified), the melting point was 191 to 192 °C.

`CNC(=O)c1cnn(-c2ccc(Cl)cc2Cl)c1C#N` showed a melting point of 182 to 183 °C.

`CC(=O)OCc1cc(Cl)ccc1Sc1ccccc1CN(C)C` came in with a melting point of 41 to 44 °C.

For `COC(=O)COc1cccc2c(CCBr)coc12`, the melting point was 58 to 59 °C.

The molecule `O=c1[nH][nH]c(=O)c2c(O)c3cccc(Cl)c3nc12` came in with a melting point above 390 °C.

Molecule `Cc1cc(C(C)(C)CBr)c(C)nn1` came in with a melting point of 45 to 46 °C.

`CC(Cl)(Cl)C(NC(=O)c1cccnc1)NC(=NC#N)Nc1ccc(Cl)nc1` (stereo unspecified) showed a melting point of 212 to 213 °C.

`CCOC(=O)c1csc(C2OC(COC(=O)c3ccccc3)C(O)C2O)n1` (stereo unspecified): the melting point fell in the range of 82 to 85 °C.

`O=C1c2ccccc2C(=O)N1CCc1cccc(C(F)(F)F)c1` came in with a melting point of 69 to 71 °C.

For `CSc1cc2n(c1C(=O)c1ccccc1)CCC2C(=O)O` (stereo unspecified), the melting point was 191 to 192 °C.

`CN(c1ccccc1)c1ncccc1NC(=O)c1ccccc1Br` showed a melting point of 144 to 146 °C.

`O=C1N[C@H](Cc2ccc(C(F)(F)F)cc2)[C@H](c2ccc(Oc3ccccc3)cc2)O1` (racemic) registered a melting point of 110 to 111 °C.

Turning to `CS(=O)(=O)N1CCN(S(=O)(=O)c2ccc(-c3cccs3)cc2)[C@@H](C(=O)NOC2CCCCO2)C1` (stereo partly specified), the melting point was in the range of 194 to 195 °C.

`CC1(C)CCC(C)(C)c2cc(-c3cc(-c4ccc(C(=O)O)cc4)ccc3OCCCO)ccc21` displayed a melting point of 317 °C.

As for `CC(O)(C(O)CBr)C(O)CBr` (stereo unspecified), the melting point lay in the range of 78 to 80 °C.

As for `COc1cc(Cc2cnc(NOC3CCCCO3)nc2NO)cc(OC)c1OC` (stereo unspecified), the melting point is 190 to 192 °C.

In turn, `CN1C(C(=O)Nc2ccccc(O)c2=O)=C(O)c2ccccc2S1(=O)=O` registered a melting point of 294 to 296 °C.

`CCC(=O)N[C@@H](C)C(=O)N1CCC[C@H]1C(=O)Nc1ccccc1` (Propionyl-Ala-Pro-NHPh) registered a melting point of 156 to 157 °C.

These data come from a melting point compilation (Tetko et al.; mined from patent text by program, amines drawn as free bases though some values may be those of a salt).
